Values quoted from earlier work as cited in patent US4375464A, “Antibiotic AY24,668 and process of preparation” (Ayerst, McKenna & Harrison Inc., priority 1981, dated 1983).

What was measured:
[1] = R. R. Martel et al., Can. J. Physiol., 55, 48 (1977)
Candida albicans [2] = tested on: Candida albicans
Candida albicans [3] = tested on: Candida albicans; remark: listed apart in the source

## CO[C@H]1C[C@@H]2CC[C@@H](C)[C@@](O)(O2)C(=O)C(=O)N2CCCC[C@H]2C(=O)O[C@H]([C@H](C)C[C@@H]2CC[C@@H](O)[C@H](OC)C2)CC(=O)[C@H](C)/C=C(\C)[C@@H](O)[C@@H](OC)C(=O)[C@H](C)C[C@H](C)/C=C/C=C/C=C/1C [rapamycin]
[1]
  immunosuppressant activity: immunosuppressant activity
Candida albicans [2]
  effectiveness against Candida albicans in vitro: particularly effective
Candida albicans [3]
  effectiveness against Candida albicans in vivo: particularly effective
